Columns and labels:
[1] = target: T1, Recombinant human IDO1 (Homo sapiens, UniProt P14902); experiment: IDOi enzyme assay (absorbance readout of NFK formation at 320 nm); format: biochemical; conditions: recombinant human IDO1, 2 mM D-tryptophan, 30 min preincubation; read-out: pXC50 enzyme (converted)
T1 construct: made in house; host or cells: E. coli

[2] = target: T2, indoleamine 2, 3-dioxygenase (IDO1) in IFN-γ/LPS stimulated human peripheral blood mononuclear cells (PBMC) (Homo sapiens, UniProt P14902); experiment: PBMC IDOi assay (kynurenine by mass spectrometry); format: cell-based; conditions: human PBMC stimulated with IFN-γ and LPS, 2 days, kynurenine by MS; read-out: pXC50 PBMC (converted)
T2 construct: host or cells: human PBMC stimulated with IFN-γ and LPS
T2 sequence (P14902 whole entry): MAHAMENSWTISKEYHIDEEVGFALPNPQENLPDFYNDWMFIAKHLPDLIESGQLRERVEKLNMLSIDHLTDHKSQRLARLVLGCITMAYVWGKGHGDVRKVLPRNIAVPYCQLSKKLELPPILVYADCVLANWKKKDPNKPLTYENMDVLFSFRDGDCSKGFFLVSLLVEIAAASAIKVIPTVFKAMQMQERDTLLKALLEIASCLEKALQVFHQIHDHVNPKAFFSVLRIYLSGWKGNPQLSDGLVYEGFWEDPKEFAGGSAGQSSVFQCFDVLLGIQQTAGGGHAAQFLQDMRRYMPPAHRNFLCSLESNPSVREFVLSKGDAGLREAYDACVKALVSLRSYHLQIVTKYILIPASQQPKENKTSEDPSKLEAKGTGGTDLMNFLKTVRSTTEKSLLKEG

[3] = target: T3, indoleamine 2, 3-dioxygenase (IDO1) in IFN-γ/LPS stimulated human monocyte-derived dendritic cells (MDDC) (Homo sapiens, UniProt P14902); experiment: IDOi MDDC assay (kynurenine by mass spectrometry); format: cell-based; conditions: human MDDC stimulated with IFN-γ and LPS, 2 days, kynurenine by MS; read-out: pXC50 MDDC (converted)
T3 construct: host or cells: human monocyte-derived dendritic cells stimulated with IFN-γ and LPS
T3 sequence (P14902 whole entry): as above

[4] = target: T4, indoleamine 2, 3-dioxygenase (IDO1) in IFN-γ stimulated HeLa cells (Homo sapiens, UniProt P14902); experiment: HeLa IDOi assay (kynurenine by mass spectrometry); format: cell-based; conditions: HeLa cells stimulated with IFN-γ, 2 days, kynurenine by MS; read-out: pXC50 HeLa (converted)
T4 construct: host or cells: HeLa cells stimulated with IFN-γ
T4 sequence (P14902 whole entry): as above

[5] = In vivo pharmacokinetics, mouse clearance
[6] = In vivo pharmacokinetics, rat clearance; conditions: plasma, intravenous, male nonfasted Wistar Han rats, doses 1 mg/kg i.v. and 5 mg/kg p.o.
Protocol: In vivo pharmacokinetic methods, rat: Male nonfasted Wistar Han rats (n=3) received test article at doses of 1 mg/kg i.v. (1 mL/kg) and 5 mg/kg p.o. (5 ml/kg) formulated in a DMSO/solutol/10% hydroxyl-propyl β cyclodextrin (10:10:80) dosing vehicle. For all animals,food and water was provided ad libitum. Blood samples were withdrawn from a surgically-implanted venous cannula at timed intervals for 24 h after dose administration, treated with EDTA, and centrifuged to harvest plasma for LC/MS/MS analysis. Plasma concentration-time data for individual rats were analyzed by noncompartmental analysis using the Phoenix™ WinNonlin® (version 6.2.1, Pharsight Corp., St. Louis, Mo.) software to generate pharmacokinetic parameter estimates.

T1 sequence (P14902 whole entry): as above

O=C(NCCNc1nonc1C(=NO)Nc1ccc(F)c(Br)c1)c1cccc2c1B(O)OCC2 [Compound 1, N-(2-((4-(N-(3-bromo-4-fluorophenyl)-N′-hydroxycarbamimidoyl)-1,2,5-oxadiazol-3-yl)amino)ethyl)-1-hydroxy-3,4-dihydro-1H-benzo[c][1,2]oxaborinine-8-carboxamide]
IC50 [1]: 100 nM
IC50 [2]: 126 nM
IC50 [3]: 158 nM
IC50 [4]: 100 nM
clearance [5]: 0.6 mL/min/kg
clearance [6]: 0.8 mL/min/kg

O=C(NCCNc1nonc1C(=NO)Nc1ccc(F)c(Br)c1)c1cccc2c1B(O)OC=C2 [Compound 2, N-(2-((4-(N-(3-Bromo-4-fluorophenyl)-N′-hydroxycarbamimidoyl)-1,2,5-oxadiazol-3-yl)amino)ethyl)-1-hydroxy-1H-benzo[c][1,2]oxaborinine-8-carboxamide]
IC50 [1]: 200 nM
IC50 [2]: 501 nM
IC50 [4]: 631 nM

O=C(NCCNc1nonc1C(=NO)Nc1ccc(F)c(Br)c1)c1ccc2c(c1)B(O)OC=C2 [Compound 3, N-(2-((4-(N-(3-Bromo-4-fluorophenyl)-N′-hydroxycarbamimidoyl)-1,2,5-oxadiazol-3-yl)amino)ethyl)-1-hydroxy-1H-benzo[c][1,2]oxaborinine-7-carboxamide]
IC50 [1]: 79.4 nM
IC50 [2]: 316 nM
IC50 [3]: 2000 nM
IC50 [4]: 1260 nM
clearance [6]: 0.8 mL/min/kg

O=C(NCCNc1nonc1C(=NO)Nc1ccc(F)c(Br)c1)c1ccc2c(c1)B(O)OCC2 [Compound 4, N-(2-((4-(N-(3-Bromo-4-fluorophenyl)-N′-hydroxycarbamimidoyl)-1,2,5-oxadiazol-3-yl)amino)ethyl)-1-hydroxy-3,4-dihydro-1H-benzo[c][1,2]oxaborinine-7-carboxamide]
IC50 [1]: 50.1 nM
IC50 [2]: 100 nM
IC50 [3]: 1260 nM
IC50 [4]: 158 nM
clearance [6]: 2 mL/min/kg

CN(Cc1cccc2c1COB2O)C(=O)CNc1nonc1C(=NO)Nc1ccc(F)c(Br)c1 [Compound 5, 2-((4-(N-(3-Bromo-4-fluorophenyl)-N′-hydroxycarbamimidoyl)-1,2,5-oxadiazol-3-yl)amino)-N-((1-hydroxy-1,3-dihydrobenzo[c][1,2]oxaborol-4-yl)methyl)-N-methylacetamide 2,2,2-trifluoroacetate]
IC50 [1]: 100 nM
IC50 [2]: 158 nM
IC50 [3]: 126 nM
IC50 [4]: 200 nM
clearance [5]: 3.1 mL/min/kg
clearance [6]: 2.8 mL/min/kg

O=C(NCCNc1nonc1C(=NO)Nc1ccc(F)c(Br)c1)c1cccc2c1B(O)OC2 [Compound 6, N-(2-((4-(N-(3-Bromo-4-fluorophenyl)-N′-hydroxycarbamimidoyl)-1,2,5-oxadiazol-3-yl)amino)ethyl)-1-hydroxy-1,3-dihydrobenzo[c][1,2]oxaborole-7-carboxamide]
IC50 [1]: 79.4 nM
IC50 [2]: 100 nM
IC50 [3]: 100 nM
IC50 [4]: 158 nM
clearance [5]: 7.1 mL/min/kg
clearance [6]: 4.8 mL/min/kg

O=C(CN1CCOB2OCc3cccc1c32)NCCNc1nonc1C(=NO)Nc1ccc(F)c(Br)c1 [Compound 7]
IC50 [1]: 100 nM
IC50 [2]: 398 nM
IC50 [4]: 631 nM
clearance [6]: 180 mL/min/kg

O=C(NCCNc1nonc1C(=NO)Nc1ccc(F)c(Br)c1)c1ccc2c(c1)COB2O [Compound 8]
IC50 [1]: 79.4 nM
IC50 [2]: 50.1 nM
IC50 [3]: 79.4 nM
IC50 [4]: 158 nM
clearance [6]: 74.9 mL/min/kg

O=C(NCCNc1nonc1C(=NO)Nc1ccc(F)c(Br)c1)Nc1ccc(B(O)O)cc1 [Compound 9]
IC50 [1]: 31.6 nM
IC50 [2]: 31.6 nM
IC50 [3]: 63.1 nM
IC50 [4]: 100 nM
clearance [6]: 238 mL/min/kg

ON=C(Nc1ccc(F)c(Br)c1)c1nonc1Nc1ccc(B(O)O)cc1 [Compound 10]
IC50 [1]: 25.1 nM
IC50 [2]: 200 nM
IC50 [3]: 631 nM
IC50 [4]: 158 nM
clearance [6]: 220 mL/min/kg

NS(=O)(=O)NCCNc1nonc1C(=NO)Nc1ccc(F)c(Br)c1 [Compound 11, reference compound]
clearance [5]: 37.2 mL/min/kg
clearance [6]: 50.6 mL/min/kg

From patent US10239894B2, “Inhibitors of indoleamine 2,3-dioxygenase” (GLAXOSMITHKLINE INTELLECTUAL PROPERTY DEVELOPMENT LIMITED, priority 2015, dated 2019)
